Assay results taken from patent publication US4450173A, “Compounds and method for treatment or prophylaxis of cardiac disorders” (American Hospital Supply Corporation, priority 1982, dated 1984).
Structures can show the parent of a compound that is named as a salt. Where two headings read alike, the source gives them in different places. Blank lines part the entries; values can stand above or below the compound they belong to.

Legend:
[1] = test system: guinea pig right atria and guinea pig tracheal strips; assay: Cardioselectivity, KB tracheal/KB atrial; assay type: cell-based
Protocol: Several of the compounds of the present invention were tested for β-blocking activity in vitro using guinea pig right atria and guinea pig tracheal strips mounted in a tissue bath containing oxygenated (95% O2 -5% CO2) Krebs physiological salt solution at 37° C. Each tissue was suspended between a fixed glass rod and a Statham® Universal Transducer connected to a Beckman® recorder. Atria were allowed to beat spontaneously under a loading tension of approximately 0.5 gm. Intrinsic depressant for stimulant activity was determined for each compound by progressively increasing concentrations in the tissue baths at 60-minute intervals. Tissues were not washed between increments. […]. Changes in rate in response to isoproterenol were measured in the absence and presence of test compounds. Spiral strips of guinea pig trachea were suspended under 5 gm resting tension and incubated with phentolamine, tropolone and cocaine. Active tension was generated by addition of carbachol (3.0×10^-7 M) and decreases in tension in response to isoproterenol were quantitated. Cumulative concentration-response curves were produced with isoproterenol both before and after 60 minute incubation of test compounds with atria and trachea. The blocking potency of test compounds was estimated by computing pA2 values (-log KB) by the method of Furchgott, The Pharmacological Differentiation of Adrenergic Receptors, Ann. N.Y. Acad. Sci.; 139: 553-570 (1967). Comparison of blockade of right atrial and tracheal responses to isoproterenol permitted assessment of cardioselectivity of test compounds; […]. A ratio greater than one indicates cardioselectivity. […]

[2] = target: guinea pig tracheal strips (Cavia porcellus, UniProt Q8K4Z4); assay: cell-based; assay type: cell-based; settings: for pA2 Trachea: guinea pig trachea, carbachol tension, isoproterenol, 60 minute incubation, pA2 = -log KB; for Kb: read-out: pA2 Trachea (converted)
Chain of guinea pig tracheal strips (Q8K4Z4 whole entry): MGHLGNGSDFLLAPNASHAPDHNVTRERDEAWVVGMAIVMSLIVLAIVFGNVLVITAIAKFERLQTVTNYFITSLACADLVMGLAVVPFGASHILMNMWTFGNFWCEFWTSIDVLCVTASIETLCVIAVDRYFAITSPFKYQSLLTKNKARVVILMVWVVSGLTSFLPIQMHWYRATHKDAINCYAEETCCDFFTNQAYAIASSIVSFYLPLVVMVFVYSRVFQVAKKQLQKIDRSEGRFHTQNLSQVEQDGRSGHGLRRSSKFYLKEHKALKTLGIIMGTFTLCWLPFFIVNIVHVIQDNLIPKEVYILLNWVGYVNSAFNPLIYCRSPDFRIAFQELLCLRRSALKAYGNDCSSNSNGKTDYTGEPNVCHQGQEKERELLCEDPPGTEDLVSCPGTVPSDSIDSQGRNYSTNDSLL
Protocol: Each tissue was suspended between a fixed glass rod and a Statham® Universal Transducer connected to a Beckman® recorder. Atria were allowed to beat spontaneously under a loading tension of approximately 0.5 gm. Intrinsic depressant for stimulant activity was determined for each compound by progressively increasing concentrations in the tissue baths at 60-minute intervals. Tissues were not washed between increments. […] Changes in rate in response to isoproterenol were measured in the absence and presence of test compounds. Spiral strips of guinea pig trachea were suspended under 5 gm resting tension and incubated with phentolamine, tropolone and cocaine. Active tension was generated by addition of carbachol (3.0×10^-7 M) and decreases in tension in response to isoproterenol were quantitated. Cumulative concentration-response curves were produced with isoproterenol both before and after 60 minute incubation of test compounds with atria and trachea. The blocking potency of test compounds was estimated by computing pA2 values (-log KB) by the method of Furchgott, The Pharmacological Differentiation of Adrenergic Receptors, Ann. […] A ratio greater than one indicates cardioselectivity.

[3] = test system: heart rate response to isoproterenol (β-receptor mediated tachycardia); assay: Duration of β-blockade in vivo in anesthetized dogs, 40-minute infusion; set-up: species or system dog; settings: for 80% Recovery Time: after 40-minute infusion, normalized to 50% inhibition; for ED50: Canis lupus familiaris, iv, 40 min, read-out: Potency (mg/kg/40 min)
Protocol: (§1) The duration of β-blockade was determined in vivo using pentobartital-anesthetized dogs instrumented for measurement of heart rate using a Beckman® cardiotachometer triggered electronically by a phasic aortic blood pressure signal. Both vagus nerves were severed in the cervical region and the animals were mechanically ventilated. Two experimental designs were used. The first employed a 40-minute infusion of test compound and the second used a 3-hour infusion of test compound. In the 40-minute model, isoproterenol was infused into a foreleg vein at the rate of 0.5 μg/kg/min to induce a β-receptor mediated tachycardia. Various doses of test compound are then infused into a femoral vein over a period of 40 minutes. This infusion was then terminated and recovery from blockade was quantitated. […] This cumulative dose is expressed as mg/kg and is an indication of potency. The time period required for 80% recovery of heart rate response for each dose of test drug was also measured to quantitate duration of action. […] Test compounds were dissolved in 0.9% NaCl and infused at a rate of 0.05 mL/kg/min or less. In the 3-hour infusion model, bolus doses of isoproterenol (0.4 μg/kg) were used to assess the degree of β-blockade and recovery from β-blockade after termination of the infusion. The doses were spaced at 10-minute intervals and were given before, during and following the infusion of test compounds. The infusion rate was adjusted so that at the end of the 3-hour infusion period the degree of isoproterenol inhibition averaged about 50% of control.

guinea pig right atria = guinea pig right atria (Cavia porcellus, UniProt H0W3H1); assay: β-blocking activity in vitro, guinea pig right atria (rate response to isoproterenol); assay type: cell-based; settings: for pA2 Atria: guinea pig right atria, isoproterenol, 60 minute incubation, pA2 = -log KB
Chain of guinea pig right atria (H0W3H1 1-470): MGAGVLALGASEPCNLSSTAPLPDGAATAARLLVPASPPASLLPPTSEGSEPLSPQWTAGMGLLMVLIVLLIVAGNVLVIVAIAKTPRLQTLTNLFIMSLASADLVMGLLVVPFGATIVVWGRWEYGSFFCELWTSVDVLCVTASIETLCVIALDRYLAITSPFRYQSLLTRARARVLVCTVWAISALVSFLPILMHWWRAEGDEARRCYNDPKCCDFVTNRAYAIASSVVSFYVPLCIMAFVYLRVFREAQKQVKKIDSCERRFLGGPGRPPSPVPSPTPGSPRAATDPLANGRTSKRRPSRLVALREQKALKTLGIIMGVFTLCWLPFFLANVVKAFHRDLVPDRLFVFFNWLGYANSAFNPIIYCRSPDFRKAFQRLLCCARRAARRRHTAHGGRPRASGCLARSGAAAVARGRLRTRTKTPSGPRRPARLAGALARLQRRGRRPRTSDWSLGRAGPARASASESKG
Protocol: Each tissue was suspended between a fixed glass rod and a Statham® Universal Transducer connected to a Beckman® recorder. Atria were allowed to beat spontaneously under a loading tension of approximately 0.5 gm. Intrinsic depressant for stimulant activity was determined for each compound by progressively increasing concentrations in the tissue baths at 60-minute intervals. Tissues were not washed between increments. The maximum concentration showing little or no cardiodepressant activity was chosen for blockade experiments. Changes in rate in response to isoproterenol were measured in the absence and presence of test compounds. Spiral strips of guinea pig trachea were suspended under 5 gm resting tension and incubated with phentolamine, tropolone and cocaine. Active tension was generated by addition of carbachol (3.0×10^-7 M) and decreases in tension in response to isoproterenol were quantitated. Cumulative concentration-response curves were produced with isoproterenol both before and after 60 minute incubation of test compounds with atria and trachea. The blocking potency of test compounds was estimated by computing pA2 values (-log KB) by the method of Furchgott, The Pharmacological Differentiation of Adrenergic Receptors, Ann. […] The degree of cardioselectivity was estimated from the ratio, KB tracheal/KB atrial (10^(pA.sbsp.2^atria-pA.sbsp.2^trachea)). A ratio greater than one indicates cardioselectivity. Test drugs were dissolved in distilled water and added to the bath (30 mL) in a volume of 10 or 100 μL.

[4] = test system: heart rate response to isoproterenol; assay: Duration of β-blockade in vivo in anesthetized dogs, 3-hour infusion; set-up: species or system dog; settings: for ED50: Canis lupus familiaris, iv, 3-hour infusion, read-out: Potency (mg/kg/180 min); for ED50 / % I (Percent inhibition of heart rate response to isoproterenol): bolus isoproterenol 0.4 μg/kg; for 80% Recovery Time: after 3-hour infusion; for % I (Percent inhibition of heart rate response to isoproterenol): end of 3-hour infusion
Protocol: as §1

[5] = Disappearance in vitro in human whole blood; assay type: in vitro ADME; settings: 50 μg in 1 mL added to 1 mL human whole blood, 37° C.; read-out: T1/2 Human Whole Blood
Protocol: (§2) The rate of disappearance of a compound is expressed as the half-life (T1/2), which is the time period in which one-half of the initial amount of compound tested disappears. In each experiment, 1 mL of a solution containing 50 μg of the test compound was added to 1 mL of whole blood or 1 mL of a 33% (w/v) liver homogenate. […] At the designated time periods, the test mixtures were removed from the incubator and transferred to a 0° C. ice bath. Acetonitrile (2 mL) was immediately added and the mixtures were mixed to stop enzymatic hydrolysis. Zero time samples were prepared by adding 2 mL of acetonrile to denature the proteins prior to addition of the test compounds. […] The half life of each test compound was determined graphically by plotting the decrease in concentration as a function of time.

[6] = Disappearance in vitro in dog whole blood; assay type: in vitro ADME; settings: 50 μg in 1 mL added to 1 mL dog whole blood, 37° C.; read-out: T1/2 Dog Whole Blood
Protocol: as §2

[7] = Disappearance in vitro in dog liver homogenate; assay type: in vitro ADME; settings: 50 μg in 1 mL added to 1 mL of 33% (w/v) dog liver homogenate, 37° C.; read-out: T1/2 Dog Liver Homogenate
Protocol: as §2

[8] = ratio KB tracheal/KB atrial, greater than one indicates cardioselectivity
[9] = read-out: pA2 Atria (converted)

pA2 Trachea [2]: 5.6
SMILES: CCOC(=O)CNCC(O)COc1ccccc1 (stereo not shown) [Example I, Ethyl N-(2-Hydroxy-3-phenoxypropyl) glycinate Oxalate]
Cardioselectivity [1, 8]: 1
Potency (mg/kg/40 min) ([3]; cumulative dose over 40-minute infusion, normalized to 50% inhibition of isoproterenol response, dogs): very low

SMILES: CCOC(=O)CNCC(O)COc1cccc2ccccc12 (stereo not shown) [Example II, Ethyl N-[[2-Hydroxy-3-(1-naphthoxy]propyl]glycinate Oxalate Hemihydrate]
80% Recovery Time ([3]; dogs): 53 ± 11 min

pA2 Trachea [2]: 5.9
SMILES: CCOC(=O)CCNCC(O)COc1ccccc1 (stereo not shown) [Example III, Ethyl 3-[N-[2-Hydroxy-3-phenoxy)propyl]amino]propionate Oxalate]
Cardioselectivity [1, 8]: 25
ED50 [3]: 12.6 ± 4.1 mg/kg
80% Recovery Time ([3]; dogs): 29 ± 13 min

pA2 Trachea [2]: 6.0
SMILES: CCOC(=O)CCCNCC(O)COc1ccccc1 (stereo not shown) [Example IV]

pA2 Atria (guinea pig right atria): inactive
pA2 Trachea [2]: inactive
SMILES: CCOC(=O)C(Cc1ccc(O)cc1)NCC(O)COc1ccccc1 (stereo not shown) [Example V, Ethyl N[(2-Hydroxy-3-phenoxy)propyl]tyrosinate]

pA2 Trachea [2]: 5.6
SMILES: CCOC(=O)CCNCC(O)COc1ccc(Cl)cc1 (stereo not shown) [Example VI, Ethyl 3[N-[3-[4-(chlorophenoxy)-2-hydroxy]propyl]amino]propionate Hydrochloride]
Cardioselectivity [1, 8]: 6

Kb (guinea pig right atria; [9]): 1260 nM
Kb [2]: > 10000 nM
SMILES: CCOC(=O)CCNCC(O)COc1ccc(CCC(=O)OC)cc1.Cl (stereo not shown) [Example VII, Ethyl 3-[N-[2-Hydroxy-3-[4-[2-(methoxycarbonyl)ethyl]phenoxy]propyl]amino]propionate Hydrochloride]
Cardioselectivity [1, 8]: > 8

SMILES: CC(=O)Nc1ccc(OCC(O)CNC(C)C)cc1 (stereo not shown) [Practolol, reference compound]
80% Recovery Time ([3]; dogs): 61 min

SMILES: CC(C)NCC(O)COc1cccc2ccccc12 (stereo not shown) [Propranolol, reference compound]
80% Recovery Time ([3]; dogs): 46 min

Kb (guinea pig right atria; [9]): 251 nM
pA2 Trachea [2]: 6.6
SMILES: CCOC(=O)CCNCC(O)COc1ccccc1C(=O)OC (stereo not shown) [VIII, Ethyl 3-[N-[2-Hydroxy-3-[2-(methoxycarbonyl)phenoxy]propyl]amino]propionateOxalate Hemihydrate]
ED50 [4]: 27.4 ± 6 mg/kg
80% Recovery Time [4]: 10 ± 2 min
% I (Percent inhibition of heart rate response to isoproterenol) [4]: 53 ± 2%
Cardioselectivity [1]: 1.0

Kb (guinea pig right atria; [9]): 2000 nM
SMILES: Cc1ccccc1OCC(O)CNCCC(=O)Oc1ccc(F)cc1 (stereo not shown) [XIX]

pA2 Trachea [2]: 6.7
half-life [5]: 1.95 ± 0.65 h
half-life [6]: > 3 h
SMILES: CCOC(=O)CCCNCC(O)COc1ccccc1C (stereo not shown) [XI]
Cardioselectivity [1, 8]: 5
ED50 [3]: 3.1 ± 0.7 mg/kg
80% Recovery Time ([3]; dogs): 15 ± 2 min

Kb (guinea pig right atria; [9]): 398 nM
SMILES: Cc1ccccc1OCC(O)CNCCC(=O)Oc1ccccc1 (stereo not shown) [XVIII]
ED50 [4]: 54 ± 14 mg/kg
80% Recovery Time [4]: > 60 min
% I (Percent inhibition of heart rate response to isoproterenol) [4]: 54 ± 8%

pA2 Trachea [2]: 7.0
half-life [5]: 2.47 ± 0.0333 h
half-life [6]: 0.867 ± 0.15 h
half-life [7]: 9 ± 8 min
SMILES: COC(=O)CCNCC(O)COc1ccccc1C (stereo not shown) [XVII]
ED50 [4]: 4.4 mg/kg
80% Recovery Time [4]: 27 ± 4 min
% I (Percent inhibition of heart rate response to isoproterenol) [4]: 56 ± 4%
Cardioselectivity [1]: 1.6

Kb [2]: 200 nM
SMILES: COC(=O)c1ccc(CNCC(O)COc2ccccc2C)cc1 (stereo not shown) [XVI]
Cardioselectivity [1, 8]: 1.6

Kb [2]: 1260 nM
half-life [5]: > 3 h
half-life [6]: > 3 h
half-life [7]: 9 ± 6 min
SMILES: CCOC(=O)c1ccc(CNCC(O)COc2ccccc2C)cc1 (stereo not shown) [XV]
Cardioselectivity [1]: 5

pA2 Trachea [2]: 6.5
SMILES: CCOC(=O)CCNCC(O)COc1cccc(C)c1 (stereo not shown) [XXIII]
Cardioselectivity [1, 8]: 1.6

pA2 Trachea [2]: 6.7
half-life [5]: 1.97 ± 0.433 h
half-life [6]: 0.667 ± 0.25 h
half-life [7]: 3 ± 3 min
SMILES: CCOC(=O)CCNCC(O)COc1cccc(Cl)c1 (stereo not shown) [XXII]
ED50 [4]: 8.5 mg/kg
80% Recovery Time [4]: > 60 min
% I (Percent inhibition of heart rate response to isoproterenol) [4]: 77%
Cardioselectivity [1, 8]: 5

pA2 Trachea [2]: 6.7
SMILES: CCOC(=O)CCNCC(O)COc1cccc(OC)c1 (stereo not shown) [XXIV]
Cardioselectivity [1, 8]: .5

Kb [2]: 25.1 nM
SMILES: COC(=O)CCNCC(O)COc1cccc2ccccc12 (stereo not shown) [XXIX]
Cardioselectivity [1, 8]: 0.3

pA2 Trachea [2]: 6.6
half-life [5]: 2.12 ± 0.833 h
half-life [6]: 1.23 ± 0.35 h
half-life [7]: 4 ± 3 min
SMILES: CCOC(=O)CCNCC(O)COc1ccccc1Cl (stereo not shown) [XXI]
ED50 [4]: 10.9 mg/kg
80% Recovery Time [4]: > 60 min
% I (Percent inhibition of heart rate response to isoproterenol) [4]: 77%
Cardioselectivity [1, 8]: 6

pA2 Atria (guinea pig right atria): 7.0
pA2 Trachea [2]: 6.6
SMILES: COc1ccc(CCOC(=O)CCNCC(O)COc2ccccc2C)cc1OC (stereo not shown) [XXVIII]
ED50 [4]: 168 mg/kg
80% Recovery Time [4]: > 60 min
% I (Percent inhibition of heart rate response to isoproterenol) [4]: 85%
Cardioselectivity [1]: 2.5

pA2 Trachea [2]: 6.2
SMILES: CCOC(=O)CNCC(O)COc1ccccc1C (stereo not shown) [XXVII]
Cardioselectivity [1, 8]: 0.5

Kb (guinea pig right atria; [9]): 794 nM
SMILES: CCOC(=O)CCNCC(O)COc1c(C)cccc1C (stereo not shown) [XXVI]

half-life [5]: 2.63 ± 0.133 h
half-life [6]: > 3 h
half-life [7]: 4 ± 2.5 min
SMILES: CCOC(=O)CCNCC(O)COc1ccc(OC)cc1 (stereo not shown) [XXV]
ED50 [3]: 17.2 ± 1.2 mg/kg
80% Recovery Time ([3]; dogs): 11 ± 2 min

Kb (guinea pig right atria; [9]): 2000 nM
SMILES: Cc1ccccc1OCC(O)CNCCC(=O)OCC(F)(F)F (stereo not shown) [XX]
